Legend:
[1] = molecular target: full-length RORγt in Jurkat cells (Homo sapiens (Human), UniProt P51449); test: RORγt 5×RORE Assay in Jurkat Cells (Assay 2); type: cell-based; details: 5×RORE Nanoluc luciferase reporter
[2] = molecular target: recombinant RORγ Ligand Binding Domain (LBD) protein (Homo sapiens (Human), UniProt P51449); test: Radio-Ligand RORγ Binding Assay (Assay 1); details: competition with 25-hydroxy [26,27-3H]-cholesterol, SPA
In short: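 His-GST-fused RORγ ligand-binding domain (24 nM solution) competed between compounds and tritiated 25-hydroxycholesterol (8.6 nM solution), read by SPA after brief rt incubations in pH 7.4 HEPES/glycerol/detergent buffer. Four-parameter curve fitting gave IC50 at inflection, converted to Ki using radioligand concentration and KD.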

Chain of full-length RORγt in Jurkat cells (P51449 other isoform, or with tags, fused parts or gaps): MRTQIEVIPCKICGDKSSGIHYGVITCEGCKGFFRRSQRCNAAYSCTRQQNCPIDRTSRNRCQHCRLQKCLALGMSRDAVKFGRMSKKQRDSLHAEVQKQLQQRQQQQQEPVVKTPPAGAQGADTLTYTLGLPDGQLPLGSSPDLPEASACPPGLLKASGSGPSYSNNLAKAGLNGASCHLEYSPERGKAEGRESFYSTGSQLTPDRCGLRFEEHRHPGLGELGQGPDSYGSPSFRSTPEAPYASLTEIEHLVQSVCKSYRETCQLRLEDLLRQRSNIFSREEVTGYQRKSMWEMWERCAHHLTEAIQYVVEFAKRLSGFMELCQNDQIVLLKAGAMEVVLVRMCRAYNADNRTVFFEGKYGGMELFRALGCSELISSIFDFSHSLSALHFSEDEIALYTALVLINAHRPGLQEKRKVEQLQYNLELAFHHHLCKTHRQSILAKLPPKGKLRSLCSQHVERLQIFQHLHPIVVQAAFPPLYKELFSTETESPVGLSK
Chain of recombinant RORγ Ligand Binding Domain (LBD) protein (P51449 269-508): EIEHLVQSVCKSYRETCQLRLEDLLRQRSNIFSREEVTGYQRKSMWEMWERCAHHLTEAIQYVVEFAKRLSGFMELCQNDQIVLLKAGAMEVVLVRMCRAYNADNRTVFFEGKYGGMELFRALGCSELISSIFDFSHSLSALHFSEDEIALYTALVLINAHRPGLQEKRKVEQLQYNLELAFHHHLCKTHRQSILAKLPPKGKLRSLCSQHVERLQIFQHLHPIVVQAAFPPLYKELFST

Compound | IC50 [1] [nM] | Ki [2] [nM]
CCS(=O)(=O)c1ccc(CNC(=O)c2ccc3c(c2)nc(OC)n3Cc2cccc3c2OC(F)(F)O3)cc1 [I-55, 1-((2,2-difluorobenzo[d][1,3]dioxol-4-yl)methyl)-N-(4-(ethylsulfonyl)benzyl)-2-methoxy-1H-benzo[d]imidazole-5-carboxamide] | 100 to 1000 | < 100
CCS(=O)(=O)c1ccc(CNC(=O)c2ccc3c(c2)nc(C(F)(F)F)n3Cc2ccnc(OC)c2)cc1 [I-89, N-(4-(ethylsulfonyl)benzyl)-1-((2-methoxypyridin-4-yl)methyl)-2-(trifluoromethyl)-1H-benzo[d]imidazole-5-carboxamide] | 100 to 1000 | < 100
CCS(=O)(=O)c1ccc(CNC(=O)c2ccc3c(c2)nc(C2CC2)n3Cc2cccc(O)c2O)cc1 [I-154, 2-cyclopropyl-1-(2,3-dihydroxybenzyl)-N-(4-(ethylsulfonyl)benzyl)-1H-benzo[d]imidazole-5-carboxamide] | > 1000 | < 100
CCS(=O)(=O)c1ccc([C@H](CO)NC(=O)c2ccc3c(c2)nc(C2CC2)n3Cc2cccc3c2OC(C)(C)C3)cc1 [I-101, (R)-2-cyclopropyl-1-((2,2-dimethyl-2,3-dihydrobenzofuran-7-yl)methyl)-N-(1-(4-(ethylsulfonyl)phenyl)-2-hydroxyethyl)-1H-benzo[d]imidazole-5-carboxamide] | > 1000 | < 100
CCS(=O)(=O)c1ccc(CNC(=O)c2ccc3c(c2)nc(C)n3Cc2ccccc2)cc1 [I-150, 1-benzyl-N-(4-(ethylsulfonyl)benzyl)-2-methyl-1H-benzo[d]imidazole-5-carboxamide] | > 1000 | 100 to 1000
CCS(=O)(=O)c1ccc([C@H](COC)NC(=O)c2ccc3c(c2)nc(C2CC2)n3Cc2cccc3c2OC(F)(F)O3)cc1 [I-60, (R)-2-cyclopropyl-1-((2,2-difluorobenzo[d][1,3]dioxol-4-yl)methyl)-N-(1-(4-(ethylsulfonyl)phenyl)-2-methoxyethyl)-1H-benzo[d]imidazole-5-carboxamide] | < 100 | < 100
(R)-1-(1-(3-cyanophenyl)ethyl)-N-(4-(ethylsulfonyl)benzyl)-2-(trifluoromethyl)-1H-benzo[d]imidazole-5-carboxamide [I-93.2] | < 100 | < 100
CCS(=O)(=O)c1ccc([C@H](CC(=O)O)NC(=O)c2ccc3c(c2)nc(C(F)(F)F)n3Cc2cccc3c2OC(F)(F)O3)cc1 [I-165, (S)-3-(1-((2,2-difluorobenzo[d][1,3]dioxol-4-yl)methyl)-2-(trifluoromethyl)-1H-benzo[d]imidazole-5-carboxamido)-3-(4-(ethylsulfonyl)phenyl)propanoic acid] | > 1000 | < 100
CCS(=O)(=O)c1ccc(CNC(=O)c2ccc3c(c2)nc([C@@H]2CCCO2)n3Cc2cccc3c2OC(F)(F)O3)cc1 [I-39.2, (S)-1-((2,2-difluorobenzo[d][1,3]dioxol-4-yl)methyl)-N-(4-(ethylsulfonyl)benzyl)-2-(tetrahydrofuran-2-yl)-1H-benzo[d]imidazole-5-carboxamide] | < 100 | < 100
CS(=O)(=O)N1CCC(CNC(=O)c2ccc3c(c2)nc(C2(F)CC2)n3Cc2cccc3c2OC(F)(F)O3)CC1 [I-73, 1-((2,2-difluorobenzo[d][1,3]dioxol-4-yl)methyl)-2-(1-fluorocyclopropyl)-N-((1-(methylsulfonyl)piperidin-4-yl)methyl)-1H-benzo[d]imidazole-5-carboxamide] | < 100 | < 100
NS(=O)(=O)c1ccc(CNC(=O)c2ccc3c(c2)nc(C(F)(F)F)n3Cc2cccc3c2OC(F)(F)O3)cc1 [I-51, 1-((2,2-difluorobenzo[d][1,3]dioxol-4-yl)methyl)-N-(4-sulfamoylbenzyl)-2-(trifluoromethyl)-1H-benzo[d]imidazole-5-carboxamide] | 100 to 1000 | < 100
CCS(=O)(=O)c1ccc(CNC(=O)c2ccc3c(c2)nc(C(F)F)n3Cc2cccc3c2OC(F)(F)O3)cc1 [I-37, 1-((2,2-difluorobenzo[d][1,3]dioxol-4-yl)methyl)-2-(difluoromethyl)-N-(4-(ethylsulfonyl)benzyl)-1H-benzo[d]imidazole-5-carboxamide] | < 100 | < 100
CCS(=O)(=O)c1ccc(CNC(=O)c2ccc3c(c2)nc(C(F)(F)F)n3Cc2cccc3cnn(C)c23)cc1 [I-137, N-(4-(ethylsulfonyl)benzyl)-1-((1-methyl-1H-indazol-7-yl)methyl)-2-(trifluoromethyl)-1H-benzo[d]imidazole-5-carboxamide] | < 100 | < 100
CCS(=O)(=O)c1ccc(CNC(=O)c2ccc3c(c2)nc(C(F)(F)F)n3Cc2cc(C#N)ccc2F)cc1 [I-94, 1-(5-cyano-2-fluorobenzyl)-N-(4-(ethylsulfonyl)benzyl)-2-(trifluoromethyl)-1H-benzo[d]imidazole-5-carboxamide] | 100 to 1000 | < 100

Other lines, results leading:

IC50 [1] [nM] | Ki [2] [nM] | Compound
< 100 | < 100 | CCS(=O)(=O)c1ccc(CC(=O)Nc2ccc3c(c2)nc(C2CC2)n3Cc2cccc3c2OC(F)(F)O3)cc1 [I-9, N-(2-cyclopropyl-1-((2,2-difluorobenzo[d][1,3]dioxol-4-yl)methyl)-1H-benzo[d]imidazol-5-yl)-2-(4-(ethylsulfonyl)phenyl)acetamide]
< 100 | < 100 | CCS(=O)(=O)c1ccc([C@H](CO)NC(=O)c2ccc3c(c2)nc(C2CC2)n3Cc2cccc3c2OCC3)cc1 [I-102, (R)-2-cyclopropyl-1-((2,3-dihydrobenzofuran-7-yl)methyl)-N-(1-(4-(ethylsulfonyl)phenyl)-2-hydroxyethyl)-1H-benzo[d]imidazole-5-carboxamide]
< 100 | < 100 | CCS(=O)(=O)c1ccc([C@@H](O)C(=O)Nc2ccc3c(c2)nc(C(F)(F)F)n3Cc2cccc3c2OC(F)(F)O3)cc1 (mixture of isomers) [I-170.2, (S)-N-(1-((2,2-difluorobenzo[d][1,3]dioxol-4-yl)methyl)-2-(trifluoromethyl)-1H-benzo[d]imidazol-5-yl)-2-(4-(ethylsulfonyl)phenyl)-2-hydroxyacetamide and (R)-N-(1-((2,2-difluorobenzo[d][1,3]dioxol-4-yl)methyl)-2-(trifluoromethyl)-1H-benzo[d]imidazol-5-yl)-2-(4-(ethylsulfonyl)phenyl)-2-hydroxyacetamide]
< 100 | < 100 | CNC(=O)CS(=O)(=O)N1CCC(CNC(=O)c2ccc3c(c2)nc(C(F)(F)F)n3Cc2cccc3c2OC(F)(F)O3)CC1 [I-75, 1-((2,2-difluorobenzo[d][1,3]dioxol-4-yl)methyl)-N-((1-((2-(methylamino)-2-oxoethyl)sulfonyl)piperidin-4-yl)methyl)-2-(trifluoromethyl)-1H-benzo[d]imidazole-5-carboxamide]
< 100 | < 100 | CNS(=O)(=O)c1ccc(CC(=O)Nc2ccc3c(c2)nc(C(F)(F)F)n3Cc2cccc3c2OC(F)(F)O3)cc1 [I-5, N-(1-((2,2-difluorobenzo[d][1,3]dioxol-4-yl)methyl)-2-(trifluoromethyl)-1H-benzo[d]imidazol-5-yl)-2-(4-(N-methylsulfamoyl)phenyl)acetamide]
< 100 | < 100 | CS(=O)(=O)c1ccc(CNC(=O)c2ccc3c(c2)nc(C2(F)CC2)n3Cc2cccc3c2OC(F)(F)O3)cc1 [I-40, 1-((2,2-difluorobenzo[d][1,3]dioxol-4-yl)methyl)-2-(1-fluorocyclopropyl)-N-(4-(methylsulfonyl)benzyl)-1H-benzo[d]imidazole-5-carboxamide]
< 100 | < 100 | O=C(NCc1ccc(S(=O)(=O)CCO)cc1)c1ccc2c(c1)nc(C1(F)CC1)n2Cc1cccc2c1OC(F)(F)O2 [I-41, 1-((2,2-difluorobenzo[d][1,3]dioxol-4-yl)methyl)-2-(1-fluorocyclopropyl)-N-(4-((2-hydroxyethyl)sulfonyl)benzyl)-1H-benzo[d]imidazole-5-carboxamide]
< 100 | < 100 | CCS(=O)(=O)c1ccc([C@H](O)C(=O)Nc2ccc3c(c2)nc(C(F)(F)F)n3Cc2cccc3c2OC(F)(F)O3)cc1 (mixture of isomers) [I-170.1, (S)-N-(1-((2,2-difluorobenzo[d][1,3]dioxol-4-yl)methyl)-2-(trifluoromethyl)-1H-benzo[d]imidazol-5-yl)-2-(4-(ethylsulfonyl)phenyl)-2-hydroxyacetamide and (R)-N-(1-((2,2-difluorobenzo[d][1,3]dioxol-4-yl)methyl)-2-(trifluoromethyl)-1H-benzo[d]imidazol-5-yl)-2-(4-(ethylsulfonyl)phenyl)-2-hydroxyacetamide]
< 100 | < 100 | CCS(=O)(=O)c1ccc(CNC(=O)c2ccc3c(c2)nc(C(F)(F)F)n3Cc2cccc3cn(C)nc23)cc1 [I-139, N-(4-(ethylsulfonyl)benzyl)-1-((2-methyl-2H-indazol-7-yl)methyl)-2-(trifluoromethyl)-1H-benzo[d]imidazole-5-carboxamide]
< 100 | < 100 | CCS(=O)(=O)c1ccc(CNC(=O)c2ccc3c(c2)nc(C(F)(F)F)n3Cc2cccc3occc23)cc1 [I-95, 1-(benzofuran-4-ylmethyl)-N-(4-(ethylsulfonyl)benzyl)-2-(trifluoromethyl)-1H-benzo[d]imidazole-5-carboxamide]
< 100 | < 100 | CS(=O)(=O)c1ccc([C@H](CO)NC(=O)c2ccc3c(c2)nc(C2CCC2)n3Cc2cccc3c2OC(F)(F)O3)cc1 [I-22, (R)-2-cyclobutyl-1-((2,2-difluorobenzo[d][1,3]dioxol-4-yl)methyl)-N-(2-hydroxy-1-(4-(methylsulfonyl)phenyl)ethyl)-1H-benzo[d]imidazole-5-carboxamide]

Reference: US10829481B2, “Benzimidazole derivatives as modulators of ROR-gamma” (Vitae Pharmaceuticals, LLC, priority 2016, dated 2020)
